“And” between values parts separate entries of the source, which are not always exact repeats. Identical values can stand only once. Like-named read-outs stand apart in the source and are kept apart here.
System: L. major lysate proteins
Assay: Multitargeted bead mixture chemoproteomics, single concentration competition, proteome-wide
Assay type: binding
Conditions: for fold change: vehicle control = 1

Structure (SMILES): Nc1nc2[nH]cc(CCc3ccc(C(=O)N[C@@H](CCC(=O)O)C(=O)O)cc3)c2c(=O)[nH]1 [PTX, pemetrexed]
- fold change relative to vehicle control: 1.01 and 1.04 and 0.91
- fold change vs vehicle control: 1.03 and 1.04 and 1
- fold change vs vehicle control (protein CLI00016468.1 KIN[…] PROTEIN-11): 0.68
- fold change vs vehicle control (protein LINJ.03.0240 RIBOSOMAL PROTEIN L38, PUTATIVE): 1.03
- fold change vs vehicle control (protein LINJ.11.0780 40S RIBOSOMAL PROTEIN S21, PUTATIVE): 0.99
- fold change (protein LINJ.11.0960 40S RIBOSOMAL PROTEIN S5): 1.07
- fold change vs vehicle control (protein LINJ.13.0990 […] SUBUNIT 2, PUTATIVE): 1.06
- fold change vs vehicle control (protein LINJ.15.0330 RIBONUCLEOPROTEIN P18, MIT[…], PUTATIVE): 1.08
- fold change (protein LINJ.19.0090 FIBRILLARIN, PUTATIVE): 0.88
- fold change (protein LINJ.21.1790 40S RIBOSOMAL PROTEIN S11, PUTATIVE): 1.08
- fold change relative to vehicle control (protein LINJ.23.0860, 3-KETOACYL-COA THIOLASE, PUTATIVE): 1.16
- fold change relative to vehicle control (protein LINJ.24.2300, 60S RIBOSOMAL PROTEIN L12, PUTATIVE): 0.96
- fold change vs vehicle control (protein LINJ.25.2230 SUCCINYL-COA […] SUBUNIT, PUTATIVE): 0.97
- fold change vs vehicle control (protein LINJ.26.1630 40S RIBOSOMAL PROTEIN S33, PUTATIVE): 0.99
- fold change vs vehicle control (protein LINJ.28.1100 RIBOSOMAL PROTEIN S20, PUTATIVE): 0.99
- fold change relative to vehicle control (protein LINJ.28.1940, R[…] A, 51KDA SUBUNIT, PUTATIVE): 0.99
- fold change (protein LINJ.28.2280 DYNEIN LIGHT CHAIN LC6, FLAGELLAR OUTER ARM, PUTATIVE): 0.87
- fold change (protein LINJ.28.2870 PROTEIN PHOSPHATASE 4 CATALYTIC SUBUNIT, PUTATIVE): 0.97
- fold change relative to vehicle control (protein LINJ.31.1600, CYTOCHROME C OXIDASE VIII (COX VIII), PUTATIVE): 0.89
- fold change relative to vehicle control (protein LINJ.33.1730, CYCLOPHILIN 4, PUTATIVE): 1.47
- fold change vs vehicle control (protein LINJ.34.0670 […]-ATP-ASE SUBUNIT 11, PUTATIVE,19S […]): 0.91
- fold change vs vehicle control (protein LINJ.36.0780 PROTEIN KINASE, PUTATIVE,MITOGEN-ACTIVATED PROTEIN KINASE, PUTATIVE): 0.92
- fold change relative to vehicle control (protein LINJ.36.3960, BASIC TRANSCRIPTION FACTOR 3A, PUTATIVE): 1.33
- fold change relative to vehicle control (protein LINJ.36.4080, HY[…], CONSERVED): 0.93
- fold change (protein LINJ.36.4180 HS1VU COMPLEX P[…]-LIKE): 0.92
- fold change vs vehicle control (protein LINJ.[…] LONG-CHAIN-FATTY-ACID-COA LIGASE, PUTATIVE): 0.9
- fold change (protein LMJF.01.0570 TRICARBOXYLATE CARRIER, PUTATIVE): 0.96
- fold change relative to vehicle control (protein LMJF.03.0200, DELTA-1-PYRROLINE-5-CARBOXYLATE DEHYDROGENASE, PUTATIVE): 1.03
- fold change (protein LMJF.03.0230 LONG CHAIN FATTY ACYL COA SYNTHETASE, PUTATIVE): 0.99
- fold change (protein LMJF.03.0980 […] 2 ALPHA SUBUNIT, PUTATIVE): 0.97
- fold change vs vehicle control (protein LMJF.04.0630 HY[…], CONSERVED): 0.99
- fold change vs vehicle control (protein LMJF.04.1230 actin): 1
- fold change (protein LMJF.05.0100 PHOSPHOPROTEIN PHOSPHATASE, PUTATIVE): 0.71
- fold change (protein LMJF.05.0280 PROTEIN TYROSINE PHOSPHATASE, PUTATIVE): 0.88
- fold change (protein LMJF.05.0510 ATPASE ALPHA SUBUNIT): 1.05
- fold change (protein LMJF.05.1040 STOMATIN-LIKE PROTEIN): 0.94
- fold change (protein LMJF.06.0650 […], PUTATIVE): 0.89
- fold change vs vehicle control (protein LMJF.07.0700 TOPOISOMERASE-RELATED FUNCTION PROTEIN-LIKE PROTEIN): 0.73
- fold change (protein LMJF.07.1000 RNA BINDING PROTEIN-LIKE PROTEIN): 0.93
- fold change relative to vehicle control (protein LMJF.07.1140, PEPTIDE […] REDUCTASE-LIKE): 1.13
- fold change (protein LMJF.08.0510 RIBOSE-PHOSPHATE PYROPHOSPHOKINASE, PUTATIVE): 0.89
- fold change vs vehicle control (protein LMJF.08.0550 T[…]-LIKE PROTEIN): 0.98
- fold change relative to vehicle control (protein LMJF.08.1030, cathepsin L-like protease): 1.04
- fold change vs vehicle control (protein LMJF.08.1100 HY[…], CONSERVED): 0.92
- fold change vs vehicle control (protein LMJF.09.1010 HY[…], CONSERVED): 0.89
- fold change relative to vehicle control (protein LMJF.09.1120, MIT[…] BINDING PROTEIN 2,MRP2, GBP25): 1
- fold change vs vehicle control (protein LMJF.09.1260 HY[…], CONSERVED): 0.97
- fold change (protein LMJF.10.0210 NUCLEOLAR PROTEIN, PUTATIVE): 0.99
- fold change vs vehicle control (protein LMJF.10.0310 PROTEIN TRANSPORT PROTEIN SEC23, PUTATIVE): 1.04
- fold change (protein LMJF.11.0590 3-METHYLCROTONOYL-COA C[…] SUBUNIT, PUTATIVE): 0.95
- fold change relative to vehicle control (protein LMJF.11.0630, AMINOPEPTIDASE, PUTATIVE,METALLO-PEPTIDASE, CLAN MF, FAMILY M17): 1.06
- fold change vs vehicle control (protein LMJF.11.1050 PRETRA[…], ALPHA SUBUNIT, PUTATIVE,SEC61-LIKE (PRETRA[…]) PROTEIN, PUTATIVE): 0.96
- fold change (protein LMJF.11.1160 PROTEIN TRANSPORT PROTEIN SEC31, PUTATIVE): 0.76
- fold change (protein LMJF.12.0030 […]-1 SUBUNIT, PUTATIVE): 0.94
- fold change vs vehicle control (protein LMJF.12.0210 […] SUBUNITTCC1L8 3, PUTATIVE): 0.96
- fold change relative to vehicle control (protein LMJF.12.0530, GLUCOSE-6-PHOSPHATE ISOMERASE): 1.26
- fold change (protein LMJF.12.0630 ALANINE AMINOTRANSFERASE): 0.86
- fold change vs vehicle control (protein LMJF.13.1230 40S RIBOSOMAL PROTEIN S4, PUTATIVE): 1.13
- fold change vs vehicle control (protein LMJF.14.0310 […] 3 SUBUNIT, PUTATIVE): 1.03
- fold change (protein LMJF.14.0660 FATTY ACID ELONGASE, PUTATIVE): 0.92
- fold change (protein LMJF.14.0670 FATTY ACID ELONGASE, PUTATIVE): 0.87
- fold change vs vehicle control (protein LMJF.14.0680 FATTY ACID ELONGASE, PUTATIVE): 1.08
- fold change (protein LMJF.14.0990 ADP/ATP MIT[…]-LIKE PROTEIN): 1.14
- fold change vs vehicle control (protein LMJF.14.1160 ENOLASE): 1.01
- fold change (protein LMJF.14.1440 HY[…], CONSERVED (cytoskeleton associated protein, putative)): 0.74

— publication PMC6199744, “Development of Chemical Proteomics for the Folateome and Analysis of the Kinetoplastid Folateome” (ACS Infectious Diseases, 2018)
